The test system of the assay is Mycosphaerella graminicola; Anamorph: Septoria tritici; Bayer Code SEPTTR. Nature of the assay: Leaf blotch of wheat, foliar fungicide treatment, one day protectant (1DP) or three day curative (3DC). In kind it is in vivo, Septoria tritici on wheat plants (variety Yuma). Particulars: Zymoseptoria tritici, rating of percent disease control.
The mark [1] stands for this setting: 24 h, one day protectant (1DP), read-out: SETTTR 1DP 25 ppm.
Where [2] appears, read: 24 h, one day protectant (1DP), read-out: SEPTTR 1DP 100 ppm.
Where [3] appears, read: 72 h, three day curative (3DC), read-out: SEPTTR 3DC 25 ppm.
Where [4] appears, read: 72 h, three day curative (3DC), read-out: SEPTTR 3DC 100 ppm.

Where two headings read alike, the source gives them in different places.

Turning to `COc1cccc(COc2ncc(F)c(NOC(C)C)n2)c1` [Compound 463], the pest or weed control at 25 ppm reads like this: under setting [1], 0 to 25%; under setting [3], 26 to 50%. Moreover, the pest or weed control at 100 ppm runs as follows: under setting [2], 51 to 75%; under setting [4], 51 to 75%.
For `COc1ccc(COc2ncc(F)c(NC(=O)NCc3ccccc3F)n2)cc1F` [Compound 464], the pest or weed control at 25 ppm runs as follows: under setting [1], 0 to 25%; under setting [3], 0 to 25%. Besides, the pest or weed control at 100 ppm under setting [2] lay within 0 to 25% and the pest or weed control at 100 ppm under setting [4] lay in the range of 26 to 50%.
As for `Nc1nc(OCc2ccc3ccccc3n2)ncc1F` [Compound 465], the pest or weed control at 25 ppm lay in the range of 76 to 100% under setting [1] and 76 to 100% under setting [3]. The pest or weed control at 100 ppm runs as follows: under setting [2], 76 to 100%; under setting [4], 76 to 100%.
As to `CC(C)OC(=O)Oc1ncc(F)c(/N=C/N(C)C)n1` [Compound 467], the pest or weed control at 25 ppm under setting [1] lay in the range of 76 to 100% and the pest or weed control at 25 ppm under setting [3] lay in the range of 76 to 100%. The pest or weed control at 100 ppm under setting [2] was 76 to 100% and the pest or weed control at 100 ppm under setting [4] lay within 76 to 100%.
Take `Nc1nc(OCc2cccc(Cl)c2)ncc1F` [Compound 468]: the pest or weed control at 25 ppm reads like this: under setting [1], 76 to 100%; under setting [3], 76 to 100%. The pest or weed control at 100 ppm lay in the range of 76 to 100% under setting [2] and 76 to 100% under setting [4].
For `Cc1cc(C)nc(NNc2nc(OCc3ccccc3)ncc2F)n1` [Compound 470], the pest or weed control at 25 ppm by setting is: under setting [1], 0 to 25%; under setting [3], 26 to 50%. The pest or weed control at 100 ppm by setting is: under setting [2], 0 to 25%; under setting [4], 26 to 50%.
Take `Nc1nc(OCc2cn3ccsc3n2)ncc1F` [Compound 472]: the pest or weed control at 25 ppm under setting [1] was 76 to 100% and the pest or weed control at 25 ppm under setting [3] fell in the range of 76 to 100%. The pest or weed control at 100 ppm runs as follows: under setting [2], 76 to 100%; under setting [4], 76 to 100%.
Consider `NNc1nc(OCc2ccc(F)cc2)ncc1F` [Compound 473], for which the pest or weed control at 25 ppm under setting [1] was in the range of 26 to 50% and the pest or weed control at 25 ppm under setting [3] lay in the range of 26 to 50%. Moreover, the pest or weed control at 100 ppm is, setting by setting: under setting [2], 76 to 100%; under setting [4], 76 to 100%.
In the case of `CC(Oc1ncc(F)c(N)n1)c1ccc(Oc2ccccc2)cc1` (stereo not drawn) [Compound 474], the pest or weed control at 25 ppm is, setting by setting: under setting [1], 76 to 100%; under setting [3], 76 to 100%. For the same compound, the pest or weed control at 100 ppm was 76 to 100% under setting [2] and 76 to 100% under setting [4].
Regarding `CCCNC(=S)Nc1nc(OCc2ccccc2OC)ncc1F` [Compound 475], the pest or weed control at 25 ppm is, setting by setting: under setting [1], 51 to 75%; under setting [3], 51 to 75%. Besides, the pest or weed control at 100 ppm is 76 to 100% under setting [2] and 76 to 100% under setting [4].
Consider `COc1ccc(COc2ncc(F)c(N)n2)cc1C(F)(F)F` [Compound 476], for which the pest or weed control at 25 ppm was 76 to 100% under setting [1] and 76 to 100% under setting [3]. In addition, the pest or weed control at 100 ppm was 76 to 100% under setting [2] and 76 to 100% under setting [4].
For the compound `O=C(NCc1ccccc1F)Nc1nc(OCc2ccc(F)cc2)ncc1F` [Compound 477], the pest or weed control at 25 ppm runs as follows: under setting [1], 0 to 25%; under setting [3], 0 to 25%. The pest or weed control at 100 ppm under setting [2] lay within 0 to 25% and the pest or weed control at 100 ppm under setting [4] is 51 to 75%.
For the compound `O=C(Nc1nc(OCc2cccc(F)c2)ncc1F)OCc1ccccc1` [Compound 478], the pest or weed control at 25 ppm by setting is: under setting [1], 51 to 75%; under setting [3], 76 to 100%. The pest or weed control at 100 ppm by setting is: under setting [2], 76 to 100%; under setting [4], 76 to 100%.
As for `O=[N+]([O-])c1ccccc1SNc1nc(OCc2c(F)cc(Br)cc2F)ncc1F` [Compound 479], the pest or weed control at 25 ppm lay within 76 to 100% under setting [1] and 51 to 75% under setting [3]. Moreover, the pest or weed control at 100 ppm reads like this: under setting [2], 76 to 100%; under setting [4], 51 to 75%.
In the case of `CNc1nc(OCc2cc(OC)c(OC)c(OC)c2)ncc1F` [Compound 480], the pest or weed control at 25 ppm runs as follows: under setting [1], 0 to 25%; under setting [3], 0 to 25%. For the same compound, the pest or weed control at 100 ppm is, setting by setting: under setting [2], 0 to 25%; under setting [4], 0 to 25%.
Regarding `NN(c1ccccc1)c1nc(OCc2ccccc2)ncc1F` [Compound 482], the pest or weed control at 25 ppm fell in the range of 0 to 25% under setting [1] and 0 to 25% under setting [3]. Moreover, the pest or weed control at 100 ppm runs as follows: under setting [2], 0 to 25%; under setting [4], 26 to 50%.
With `CN(C)/C=N/c1nc(OC(=O)c2cccc(Cl)c2)ncc1F` [Compound 484], the pest or weed control at 25 ppm under setting [1] was 76 to 100% and the pest or weed control at 25 ppm under setting [3] was 76 to 100%. In addition, the pest or weed control at 100 ppm under setting [2] fell in the range of 76 to 100% and the pest or weed control at 100 ppm under setting [4] lay in the range of 76 to 100%.
Turning to `O=C(Nc1ccccc1)Nc1nc(OCc2ccc(F)cc2)ncc1F` [Compound 485], the pest or weed control at 25 ppm reads like this: under setting [1], 0 to 25%; under setting [3], 0 to 25%. Besides, the pest or weed control at 100 ppm runs as follows: under setting [2], 0 to 25%; under setting [4], 0 to 25%.
Regarding `Cc1noc(-c2ccccc2COc2ncc(F)c(N)n2)n1` [Compound 486], the pest or weed control at 25 ppm was in the range of 0 to 25% under setting [1] and 26 to 50% under setting [3]. Moreover, the pest or weed control at 100 ppm lay within 0 to 25% under setting [2] and 26 to 50% under setting [4].
In the case of `CN(O)c1nc(OCc2ccc(F)cc2)ncc1F` [Compound 487], the pest or weed control at 25 ppm fell in the range of 0 to 25% under setting [1] and 0 to 25% under setting [3]. Moreover, the pest or weed control at 100 ppm by setting is: under setting [2], 76 to 100%; under setting [4], 76 to 100%.
On to `CC#CCOc1ncc(F)c(N)n1` [Compound 489], for which the pest or weed control at 25 ppm is, setting by setting: under setting [1], 0 to 25%; under setting [3], 76 to 100%. Moreover, the pest or weed control at 100 ppm is, setting by setting: under setting [2], 51 to 75%; under setting [4], 76 to 100%.
With `CCOC(=O)Nc1nc(OCc2ccc(C)cc2)ncc1F` [Compound 490], the pest or weed control at 25 ppm reads like this: under setting [1], 76 to 100%; under setting [3], 76 to 100%. The pest or weed control at 100 ppm fell in the range of 76 to 100% under setting [2] and 76 to 100% under setting [4].
On to `Fc1ccc(COc2ncc(F)c(NNC3CCCCC3)n2)cc1` [Compound 492], for which the pest or weed control at 25 ppm by setting is: under setting [1], 0 to 25%; under setting [3], 0 to 25%. Moreover, the pest or weed control at 100 ppm under setting [2] lay in the range of 26 to 50% and the pest or weed control at 100 ppm under setting [4] was in the range of 26 to 50%.
For `Fc1cnc(OCc2ccccc2)nc1NNC1CCCCC1` [Compound 493], the pest or weed control at 25 ppm lay within 0 to 25% under setting [1] and 0 to 25% under setting [3]. Also, the pest or weed control at 100 ppm reads like this: under setting [2], 26 to 50%; under setting [4], 0 to 25%.
Consider `CN(C)/C=N/c1nc(OCc2cccc(F)c2)ncc1F` [Compound 494], for which the pest or weed control at 25 ppm reads like this: under setting [1], 76 to 100%; under setting [3], 76 to 100%. For the same compound, the pest or weed control at 100 ppm by setting is: under setting [2], 76 to 100%; under setting [4], 76 to 100%.
Regarding `Cc1ccc(COc2ncc(F)c(NC(=O)Cc3ccccc3)n2)cc1` [Compound 497], the pest or weed control at 25 ppm under setting [1] lay within 51 to 75% and the pest or weed control at 25 ppm under setting [3] lay in the range of 0 to 25%. The pest or weed control at 100 ppm was in the range of 76 to 100% under setting [2] and 26 to 50% under setting [4].
For `CCOCNc1nc(OCc2cccc(F)c2)ncc1F` [Compound 498], the pest or weed control at 25 ppm runs as follows: under setting [1], 76 to 100%; under setting [3], 76 to 100%. Besides, the pest or weed control at 100 ppm is, setting by setting: under setting [2], 76 to 100%; under setting [4], 76 to 100%.

These data come from patent publication US9204653B2, “5-fluoro pyrimidine derivatives” (DOW AGROSCIENCES LLC, priority 2008, dated 2015).
